For one experiment, the system named is THP-1 macrophages. As to the kind of experiment: Marker expression in MDA-MB-436 tumor cell-educated THP-1 macrophages. The conditions noted are these: ADU-S100 10 μM, two days; FIG. 7G. Type of experiment: cell-based, human. As to the method:
Cells were cultured in a humidified incubator under 5% CO2 at 37° C. MDA-MB-436, HCC1937 and THP-1 human cell lines were obtained from ATCC, tested negative for mycoplasma, and authenticated using short tandem repeat analysis (Promega GenePrint 10 System). MDA-MB-436 and HCC1937 breast cancer cells were cultured in RPMI 1640 medium (Gibco) supplemented with 10% heat-inactivated fetal bovine serum (FBS, Gemini) and 100 μg/mL penicillin-streptomycin (Gibco). THP-1 monocytes were cultured in RPMI 1640 with 10% FBS and 0.055 mM 2-mercaptoethanol (Gibco, #21985023). To differentiate THP-1 monocytes to macrophages, cells were treated with 100 nM PMA (Sigma, #P1585) for 48 h, followed by 24 h recovery with PMA-free medium.
For flow cytometry analyses of tumor and TDLN samples, single-cell suspensions were obtained as described above (Tissue Digestion). Cells were stained in cold FACS buffer (PBS containing 0.2% BSA and 5 mM EDTA) with LIVE/DEAD Fixable Aqua Dead Cell Stain (Thermo Fisher) for 30 min on ice, followed by blocking with anti-CD16/32 (BioLegend) for 20 min on ice. […] All data were analyzed using FlowJo software. […]

Experiment [1] relates to BMDMs generated from FVB/NJ mice. Put plainly: Polarization of mouse BMDMs cultured in PBM / PBM-R conditioned medium. The format is cell-based. The conditions noted are these: BMDMs in 50% PBM-R-CM; ADU-S100 10 μM or MSA-2 5 ug/ml, two days; FIG. 21B. As for the experimental part:
For ex vivo culture of mouse macrophages, bone marrow cells were isolated from FVB/NJ mice and cultured in DMEM containing 10% FBS, 55 μM 2-Mercaptoethanol and 20 ng/ml M-CSF. BMDMs (bone marrow derived macrophages) were harvested on day 7 and further cultured in 2.0 ml control medium (90% DMEM, 10% FBS, 55 μM 2-Mercaptoethanol and 5 ng/ml M-CSF) described above or the medium containing 50% tumor cell conditioned medium for 72 hrs before analysis. For the tumor cell conditioned medium, about 3×10^5 tumor cells were cultured in 6-well plate for 24 hrs and then treated with DMSO or olaparib. After 24 hrs incubation with DMSO or olaparib, the tumor cells were washed twice with PBS and cultured in DMEM containing 10% FBS for 48 hrs. The tumor cell conditioned medium was collected by centrifugation at 1,500 g for 5 min at 4° C. to remove all the debris and cells. For the cytokine blocking experiment, monoclonal antibodies that specific to each cytokine were added to the tumor cell conditioned medium before it was applied to culture macrophages.

For the next experiment, the system named is human BMDMs. Put plainly: Polarization of human BMDMs cultured in CM from ovarian PDXs. The format is cell-based. The conditions noted are these: STAT3 inhibitor-treated PDXs; FIG. 25D. As to the method: For ex vivo culture of human macrophages, human BMDMs were generated from bone marrow mononuclear cells (BMMs) (CAT #70001) obtained from […] Technologies. Briefly, BMMs were cultured in DMEM containing 10% FBS, 55 μM 2-Mercaptoethanol (CAT #21985023, Thermo Fisher) and 50 ng/ml M-CSF for 5-7 days with media replacement every 3 days to obtain matured macrophages (BMDMs). […] Flow cytometry analysis was preformed to analyze the phenotypes of macrophages for both mouse and human BMDMs.

For experiment [2], the system named is PE tumors. As to the kind of experiment: PE (exon19del/T790M EGFR, Trp53 loss) tumor growth in FVB mice. The format is in vivo, mouse. The note with it: mouse, in vivo.
The subject of experiment [3] is PE tumors. Put plainly: Flow cytometry of immune cells in PE tumors and tumor-drainage lymph nodes. Type of experiment: in vivo, mouse. As for the experimental part:
To obtain single-cell suspension from tumor mass, tumors were excised, minced and dissociated in collagenase buffer (DMEM supplemented with 5% FBS, 10 mM HEPES [Gibco), 100 μg/mL penicillin-streptomycin, 20 μg/mL DNase I [StemCell] and 1× collagenase/hyaluronidase [StemCell]) at 37° C. for 45 min. Tumor-draining lymph nodes were isolated from tumor-bearing mice and were mashed through 70 μm strainer using plunger of a syringe to obtain single-cell suspension.
For FACS staining, tissue cells were first stained with LIVE/DEAD Fixable Aqua Dead Cell Stain (Thermo Fisher) for 30 min on ice, followed by blocking with anti-CD16/32 (BioLegend) for 20 minutes on ice. Afterwards, cells were incubated with antibodies targeting surface biomarkers in FACS buffer for 30 minutes on ice.
(In general: Flow cytometry measures light scatter and fluorescence of single cells or particles in a stream.)

In a further experiment the test system is PE tumor cells. Put plainly: CXCL10 and CCL5 expression in PE tumor cells (RT-PCR). The format is cell-based, mouse. The conditions noted are these: FIG. 27C. As for the experimental part:
(§1) Cultured cells were lysed in 1 mL TRIZOL® reagent supplied with 200 μL chloroform, after which, samples were vortexed vigorously for 15s and incubated at room temperature for 2 to 3 minutes. The samples were then centrifuged at 12000 g for 15 minutes at 4° C., and collected aqueous phase only. […] Relative mRNA levels were calculated using the […]. Mouse Actb and human GAPDH were used as endogenous controls for mouse and human samples, respectively.

For the next experiment, the system named is PC9GR4. Put plainly: CXCL10 and CCL5 expression in PC9GR4 cells (RT-PCR). The note with it: FIG. 27C. The format is cell-based, human. As to the method: as §1
The subject of experiment [4] is EFGR/ERK signaling pathway.

“Also recorded” adds a separate entry of the source.

Experimental findings from patent US20250009743A1, “METHODS OF TREATING CANCERS USING STING AGONISTS” (Dana-Farber Cancer Institute, Inc., priority 2021, published 2025) are described below.

`Nc1ncnc2c1ncn2[C@@H]1O[C@@H]2COP(=O)([S-])O[C@@H]3[C@H](O)[C@@H](COP([O-])(=S)O[C@H]2[C@H]1O)O[C@H]3n1cnc2c(N)ncnc21.[Na+].[Na+]` (some centres unmarked) [ADU-S100]: in the experiment on THP-1 macrophages, the CD86 expression entry is reported as “significantly increased” and the CD163 expression entry is given as “suppressed”. For the same compound, the M1/M2 ratio entry in experiment [1] is “significantly increased”.
Regarding `CC(=O)c1cc2c(o1)C(=O)c1ccccc1C2=O` [napabucasion], the “M2-like macrophage polarization induced by CM from DF86 and DF118” value in the experiment with human BMDMs was “partially diminished”.
Regarding `C=CC(=O)Nc1cc(Nc2nccc(-c3cn(C)c4ccccc34)n2)c(OC)cc1N(C)CCN(C)C` [osimertinib], in the experiment on PE tumors [2], the PE tumor growth entry is recorded as “significantly slowed PE tumor growth; also recorded: tumor regression; also recorded: only modest therapeutic effects”; the “growth of large PE tumors” value was “progressed through osimertinib treatment and presented growth rates comparable to control”; the “therapeutic effect under CD8^+ T cell depletion” value is given as “significantly mitigated”. Besides, the “T cells or IFNg^+/TNFa^+ T cells in large PE tumors” value with PE tumors [3] (large tumors) is on record as “did not lead to increase”. Also, in the experiment with PE tumors [3] (single-agent treatment, FIG. 30B), the “tumor immune microenvironment of large PE tumors” value was “did not significantly affect”. For the same compound, in the experiment with PE tumors [3] (small tumors, FIG. 27B), the “CD8^+ and CD4^+ T cells in tumor” value was “induced the recruitment of CD8^+ and CD4^+ T cells”; the “IFNg-positive CD8^+ and CD4^+ T cells” value is given as “increase”. The “expression of CXCL10 and CCL5” value in the experiment with PE tumor cells is on record as “significantly elevated”. Moreover, the “expression of CXCL10 and CCL5” value in the experiment on PC9GR4 is recorded as “significantly elevated”. The “activation of EFGR/ERK signaling pathway (phosphorylation of EGFR and ERK)” value in experiment [4] was “inhibited”.
